The target in test [1] is human catalytic domain HDAC4 protein (Homo sapiens, UniProt P56524, A743G/DEL730-739/DEL742-742). In words: Inhibition of HDAC4 catalytic domain enzymatic activity, Boc-Lys(Tfa)-AMC substrate, fluorescence.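 Note: trypsin releases AMC from deacetylated substrate, fluorescence tracks enzyme activity, 15 min reaction at 37 °C, 100% activity defined by DMSO-only control.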 To be noted: Class IIa selective substrate Boc-Lys(Tfa)-AMC, read-out: Biochemical HDAC-4 IC50.
The test system of test [2] is cellular histone deacetylase enzymatic activity in Jurkat E6-1 cells. In words: Inhibition of cellular HDAC activity, Boc-Lys(Tfa)-AMC substrate, in Jurkat E6-1 cells. The settings on record: Homo sapiens, Class IIa selective substrate Boc-Lys(Tfa)-AMC. It is filed as cell-based. The text has this:
The potency of Class IIa Histone Deacetylase (HDAC) inhibitors is quantified by measuring the cellular histone deacetylase enzymatic activity using the Class IIa selective substrate, Boc-Lys(Tfa)-AMC. After penetration in Jurkat E6-1 cells, the substrate is deacetylated to Boc-Lys-AMC. After cell lysis and cleavage by trypsin, the fluorophore AMC is released from the deacetylated substrate only. The fluoresence of the sample is directly related to the histone deacetylase activity in the sample.
Jurkat E6.1 Cell Culture and Plating.
Jurkat E6.1 cells are cultured according to standard cell culture protocols in Jurkat E6.1 Growth Media (RPMI without phenol red, 10% FBS, 10 mM HEPES, and 1 mM Sodium Pyruvate). Jurkat E6.1 cells are counted using a Coulter Counter and resuspended in Jurkat E6.1 growth media at a concentration of 75,000 cells/35 μl. 35 μl or 75,000 cells is seeded into Greiner microtitre assay plates. The plates are then incubated at 37° C. and 5% CO2 while other assay components are being prepared.
Serially Dilute HDAC Inhibitor Compounds.
Serial dilutions of the HDAC inhibitors and control reference compound (1-(5-(3-((4-(1,3,4-oxadiazol-2-yl)phenoxy)methyl)-1,2,4-oxadiazol-5-yl)thiophen-2-yl)-2,2,2-trifluoroethanone) are made by first resuspending the lyophilized compound to a final concentration of 10 mM in 100% DMSO. Stocks of 70 μl aliquots of the 10 mM compound in DMSO are prepared and stored at −20° C. From one stock aliquot of each compound to be tested and the reference compound, a 16-point serial dilution is prepared according to Table 7 using a 125 μl 16-channel Matrix multi-channel pipette.
2 μl (200×) of each diluted solution and each control (full activity: 100% DMSO alone or full inhibition 1 mM) is stamped into V-bottom polypropylene 384-well compound plates using either the Bravo, Janus, or […] 16-channel Matrix multi-channel pipette. Each well with the 200× compound solution is diluted 1:20 by the addition of 38 μl Jurkat assay buffer+DMSO (9.5% DMSO, RPMI without phenol red, 0.09% FBS, 9 mM Hepes, and 0.9 mM Sodium Pyruvate equilibrated to room temperature)
Prepare 5× (500 μM) Boc-Lys(Tfa)-AMC Substrate.
5× (500 μM) substrate is prepared just prior to the addition to the assay. The 5× substrate is prepared by diluting a 100 mM Boc-Lys(Tfa)-AMC in DMSO solution 1:200 by adding it drop-wise to Jurkat assay medium (RPMI without phenol red, 0.1% FBS, 10 mM Hepes, and 1 mM Sodium Pyruvate equilibrated to 37° C.) while vortexing at slow speed to prevent precipitation.
10 ml of 3× lysis buffer is prepared with 8.8 ml of 3× stock lysis buffer (50 mM Tris-HCl, pH 8.0, 137 mM NaCl, 2.7 mM KCl, 1 mM MgCl2, 1% Nonidet P40 Substitute equilibrated to room temperature) and 1.2 ml of 3 mg/ml Trypsin equilibrated to room temperature.
5 μl of each solution of 1:20 diluted compound from above is transferred to the Greiner microtitre assay plates with 75,000 cells/well using the Bravo. Cells are then incubated for 2 hours at 37° C. and 5% CO2. The assay is then started by adding 10 μl of 5× (500 μM) substrate to the assay plate using either the Bravo or 16-channel Matrix multi-channel pipette. The cells are then incubated for 3 hours at 37° C. and 5% CO2. Next, 25 μl of 3× lysis buffer is added to each well using either the 125 μl 16 channel pipette or the Bravo. The assay plate is then incubated overnight (15-16 hours) at 37° C. and 5% CO2. The following day, the plates are shaken on an orbital shaker for 1 minute at 900 rpm. Finally the top read fluorescence (Excitation: 355 nm, Emission: 460 nm) is measured using PerkinElmer EnVision.

The term IC50 denotes the midpoint of a concentration-inhibition curve. Turning to `O=C(NO)[C@H]1[C@H](c2ccccc2)[C@H]1C1CCCCC1` (racemic) [Compound 5, (1R*,2R*,3R*)-2-Cyclohexyl-N-hydroxy-3-phenylcyclopropanecarboxamide], the results for the IC50 in test [1] and in test [2] were 6220 nM and 36900 nM, respectively.

Consider `CC(C)Oc1ccccc1[C@@H]1C(c2ccccc2)[C@H]1C(=O)NO` (mixture of isomers) [Compound 11a, (1R,2R,3R*)—N-Hydroxy-2-(2-isopropoxyphenyl)-3-phenylcyclopropanecarboxamide], for which the figures for the half-maximal inhibitory concentration (IC50) in test [1] and in test [2] were 20600 nM and 50000 nM, respectively.

As to `O=C(NO)[C@@H]1[C@H](c2ccccc2)[C@H]1c1ccccc1F` (racemic) [Compound 11b, (1R*,2R*,3R*)-2-(2-Fluorophenyl)-N-hydroxy-3-phenylcyclopropanecarboxamide], the IC50 in test [1] stood at 320 nM; in test [2], 1830 nM.

Consider `O=C(NO)[C@H]1[C@H](c2ccccc2)[C@H]1c1ccccc1F` (racemic) [Compound 13, (1S*,2R*,3R)-2-(2-Fluorophenyl)-N-hydroxy-3-phenylcyclopropanecarboxamide], for which the IC50 in test [1] was found to be 940 nM; in test [2], 7670 nM.

Take `O=C(NO)[C@@H]1[C@H](c2ccccc2)[C@H]1c1ccccc1Br` (racemic) [Compound 16a, (1R*,2R*,3R*)-2-(2-Bromophenyl)-N-hydroxy-3-phenylcyclopropanecarboxamide]: the IC50 in test [1] came to 620 nM; in test [2] it was 6530 nM.

Regarding `O=C(NO)[C@@H]1[C@H](c2ccccc2)[C@H]1c1cccc(Br)c1` (racemic) [Compound 16b, (1R*,2R*,3R*)-2-(3-Bromophenyl)-N-hydroxy-3-phenylcyclopropanecarboxamide], the IC50 is 70 nM in test [1] and 1410 nM in test [2].

For `O=C(NO)[C@@H]1[C@H](c2ccccc2)[C@H]1c1ccc(Br)cc1` (racemic) [Compound 16c, (1R*,2R*,3R*)-2-(4-Bromophenyl)-N-hydroxy-3-phenylcyclopropanecarboxamide], the IC50 in test [1] was found to be 370 nM; in test [2], 2870 nM.

On to `Cc1ccccc1[C@H]1[C@H](C(=O)NO)[C@@H]1c1ccccc1` (racemic) [Compound 18a, (1R*,2R*,3R*)—N-Hydroxy-2-phenyl-3-o-tolylcyclopropanecarboxamide], for which the IC50 in test [1] amounted to 1720 nM; in test [2] it was 13200 nM.

On to `Cc1cccc([C@H]2[C@H](C(=O)NO)[C@@H]2c2ccccc2)c1` (racemic) [Compound 18b, (1R*,2R*,3R*)—N-Hydroxy-2-phenyl-3-m-tolylcyclopropanecarboxamide], for which the IC50 in test [1] is 150 nM; in test [2] it was 2740 nM.

For `Cc1ccc([C@H]2[C@H](C(=O)NO)[C@@H]2c2ccccc2)cc1` (racemic) [Compound 18c, (1R*,2R*,3R*)—N-Hydroxy-2-phenyl-3-p-tolylcyclopropanecarboxamide], the IC50 in test [1] was 150 nM; in test [2] it was 2250 nM.

`O=C(NO)[C@@H]1[C@H](c2ccccc2)[C@H]1c1ccc(-c2nccc(C(F)(F)F)n2)cc1` (racemic) [Compound 50d, (1R*,2R*,3R*)-2-(4-(4-Trifluoromethylpyrimidin-2-yl)phenyl)-N-hydroxy-3-phenylcyclopropanecarboxamide]: the IC50 in test [2] is 880 nM.

With `Cc1cnc(-c2ccc([C@H]3[C@H](C(=O)NO)[C@@H]3c3ccccc3)cc2)nc1` (racemic) [Compound 50k, (1R*,2R*,3R*)—N-Hydroxy-2-(4-(5-methylpyrimidin-2-yl)phenyl)-3-phenylcyclopropanecarboxamide], the IC50 in test [2] was found to be 480 nM.

For `O=C(NO)[C@@H]1[C@H](c2ccccc2)[C@H]1c1ccc(-c2ncc(Cl)cn2)cc1` [Compound 50j, (1R,2R,3R)-2-(4-(5-Chloropyrimidin-2-yl)phenyl)-N-hydroxy-3-phenylcyclopropanecarboxamide], the IC50 in test [2] came to 420 nM.
